Key:
Test in all cases: KINOMEscan competition binding
Settings in all cases: compound 10.0 µM; call rule not given here
STK25 (human) = STK25 (human) (UniProt O00506)
CAMK1G (human) = CAMK1G (human) (UniProt Q96NX5)
INSRR (human) = INSRR (human) (UniProt P14616)
TYRO3 (human) = TYRO3 (human) (UniProt Q06418)
NEK7 (human) = NEK7 (human) (UniProt Q8TDX7)
MARK1 (human) = MARK1 (human) (UniProt Q9P0L2)
CLK4 (human) = CLK4 (human) (UniProt Q9HAZ1)
NEK2 (human) = NEK2 (human) (UniProt P51955)
PRKCA (human) = PRKCA (human) (UniProt P17252)
TLK2 (human) = TLK2 (human) (UniProt Q86UE8)
MAPK1 (human) = MAPK1 (human) (UniProt P28482)
Chain of MAPK1 (human) (P28482 whole entry, looked up): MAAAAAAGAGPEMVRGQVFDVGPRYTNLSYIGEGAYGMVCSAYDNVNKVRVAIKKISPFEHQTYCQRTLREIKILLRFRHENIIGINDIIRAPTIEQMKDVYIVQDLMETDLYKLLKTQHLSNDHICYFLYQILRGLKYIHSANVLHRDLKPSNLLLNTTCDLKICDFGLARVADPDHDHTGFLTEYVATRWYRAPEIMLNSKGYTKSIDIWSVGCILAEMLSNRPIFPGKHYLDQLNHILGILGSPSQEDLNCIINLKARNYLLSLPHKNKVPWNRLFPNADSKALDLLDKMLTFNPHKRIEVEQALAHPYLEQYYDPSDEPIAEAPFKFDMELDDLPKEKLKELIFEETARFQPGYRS

CSK (human) = CSK (human) (UniProt P41240)
PAK3 (human) = PAK3 (human) (UniProt O75914)
Chain of PAK3 (human) (O75914 whole entry, looked up): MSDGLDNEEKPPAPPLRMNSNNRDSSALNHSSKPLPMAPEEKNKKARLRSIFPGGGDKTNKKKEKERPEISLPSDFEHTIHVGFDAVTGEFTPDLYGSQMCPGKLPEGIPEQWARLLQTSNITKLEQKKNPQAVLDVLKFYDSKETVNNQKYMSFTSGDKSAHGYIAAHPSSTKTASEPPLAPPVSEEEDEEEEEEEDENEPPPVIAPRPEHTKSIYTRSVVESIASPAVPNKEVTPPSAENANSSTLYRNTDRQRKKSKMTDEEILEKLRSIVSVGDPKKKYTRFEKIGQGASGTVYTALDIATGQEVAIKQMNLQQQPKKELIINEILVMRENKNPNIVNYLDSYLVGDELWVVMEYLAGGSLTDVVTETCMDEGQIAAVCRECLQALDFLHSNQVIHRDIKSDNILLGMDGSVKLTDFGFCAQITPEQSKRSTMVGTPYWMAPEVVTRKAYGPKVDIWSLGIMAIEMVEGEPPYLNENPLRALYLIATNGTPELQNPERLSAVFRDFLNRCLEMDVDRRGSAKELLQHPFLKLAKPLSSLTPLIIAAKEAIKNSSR

FGFR4 (human) = FGFR4 (human) (UniProt P22455)
RIPK2 (human) = RIPK2 (human) (UniProt O43353)
NEK9 (human) = NEK9 (human) (UniProt Q8TD19)
PLK1 (human) = PLK1 (human) (UniProt P53350)
IGF1R (human) = IGF1R (human) (UniProt P08069)
CLK3 (human) = CLK3 (human) (UniProt P49761)
EPHB4 (human) = EPHB4 (human) (UniProt P54760)
MAPK11 (human) = MAPK11 (human) (UniProt Q15759)
EGFR (human) = EGFR (human) (UniProt P00533)
LIMK2 (human) = LIMK2 (human) (UniProt P53671)
PRKACB (human) = PRKACB (human) (UniProt P22694)
PTK6 (human) = PTK6 (human) (UniProt Q13882)
RPS6KA5 KD1 (human) = RPS6KA5 KD1 (human) (UniProt O75582)
PLK3 (human) = PLK3 (human) (UniProt Q9H4B4)
RPS6KA6 KD1 (human) = RPS6KA6 KD1 (human) (UniProt Q9UK32)
MUSK (human) = MUSK (human) (UniProt O15146)
PRKG2 (human) = PRKG2 (human) (UniProt Q13237)
MAP3K5 (human) = MAP3K5 (human) (UniProt Q99683)
RPS6KA4 KD1 (human) = RPS6KA4 KD1 (human) (UniProt O75676)
EPHB3 (human) = EPHB3 (human) (UniProt P54753)
EPHB2 (human) = EPHB2 (human) (UniProt P29323)
PRKX (human) = PRKX (human) (UniProt P51817)
AKT3 (human) = AKT3 (human) (UniProt Q9Y243)
Chain of AKT3 (human) (Q9Y243 whole entry, looked up): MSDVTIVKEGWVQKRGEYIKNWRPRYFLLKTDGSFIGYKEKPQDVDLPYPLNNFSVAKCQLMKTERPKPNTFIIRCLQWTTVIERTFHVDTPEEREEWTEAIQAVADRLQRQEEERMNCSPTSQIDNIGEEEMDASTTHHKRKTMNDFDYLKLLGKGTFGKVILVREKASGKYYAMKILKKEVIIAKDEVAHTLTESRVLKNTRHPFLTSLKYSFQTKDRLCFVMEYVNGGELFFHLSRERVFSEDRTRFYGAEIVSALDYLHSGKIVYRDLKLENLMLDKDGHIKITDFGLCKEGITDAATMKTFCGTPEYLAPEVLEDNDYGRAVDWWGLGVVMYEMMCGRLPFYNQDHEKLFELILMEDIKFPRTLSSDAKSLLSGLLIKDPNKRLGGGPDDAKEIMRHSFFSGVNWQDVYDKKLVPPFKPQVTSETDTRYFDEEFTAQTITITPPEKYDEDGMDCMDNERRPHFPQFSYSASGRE

RPS6KA1 KD1 (human) = RPS6KA1 KD1 (human) (UniProt Q15418)
Chain of RPS6KA1 KD1 (human) (Q15418 whole entry, looked up): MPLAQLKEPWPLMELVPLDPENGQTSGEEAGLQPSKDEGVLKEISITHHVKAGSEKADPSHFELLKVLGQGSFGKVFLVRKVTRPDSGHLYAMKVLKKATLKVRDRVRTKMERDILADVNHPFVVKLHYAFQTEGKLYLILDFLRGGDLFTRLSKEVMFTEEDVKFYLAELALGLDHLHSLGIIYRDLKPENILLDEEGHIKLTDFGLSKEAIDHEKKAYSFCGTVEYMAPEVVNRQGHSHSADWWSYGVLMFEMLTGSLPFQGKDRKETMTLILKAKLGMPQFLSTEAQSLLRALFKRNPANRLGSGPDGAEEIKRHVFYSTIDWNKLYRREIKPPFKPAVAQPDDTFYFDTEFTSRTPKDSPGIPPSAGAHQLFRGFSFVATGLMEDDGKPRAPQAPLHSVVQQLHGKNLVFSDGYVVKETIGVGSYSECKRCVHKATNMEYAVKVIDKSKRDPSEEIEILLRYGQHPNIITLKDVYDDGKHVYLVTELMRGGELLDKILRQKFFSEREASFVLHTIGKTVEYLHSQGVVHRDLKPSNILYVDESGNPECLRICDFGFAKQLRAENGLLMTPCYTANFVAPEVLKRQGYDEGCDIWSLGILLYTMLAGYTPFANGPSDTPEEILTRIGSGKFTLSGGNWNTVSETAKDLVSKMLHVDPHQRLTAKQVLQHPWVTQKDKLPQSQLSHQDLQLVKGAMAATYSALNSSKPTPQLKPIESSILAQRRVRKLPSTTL

PTK2B (human) = PTK2B (human) (UniProt Q14289)
MAPK9 (human) = MAPK9 (human) (UniProt P45984)
TXK (human) = TXK (human) (UniProt P42681)

Chain of TYRO3 (human) (Q06418 whole entry, looked up): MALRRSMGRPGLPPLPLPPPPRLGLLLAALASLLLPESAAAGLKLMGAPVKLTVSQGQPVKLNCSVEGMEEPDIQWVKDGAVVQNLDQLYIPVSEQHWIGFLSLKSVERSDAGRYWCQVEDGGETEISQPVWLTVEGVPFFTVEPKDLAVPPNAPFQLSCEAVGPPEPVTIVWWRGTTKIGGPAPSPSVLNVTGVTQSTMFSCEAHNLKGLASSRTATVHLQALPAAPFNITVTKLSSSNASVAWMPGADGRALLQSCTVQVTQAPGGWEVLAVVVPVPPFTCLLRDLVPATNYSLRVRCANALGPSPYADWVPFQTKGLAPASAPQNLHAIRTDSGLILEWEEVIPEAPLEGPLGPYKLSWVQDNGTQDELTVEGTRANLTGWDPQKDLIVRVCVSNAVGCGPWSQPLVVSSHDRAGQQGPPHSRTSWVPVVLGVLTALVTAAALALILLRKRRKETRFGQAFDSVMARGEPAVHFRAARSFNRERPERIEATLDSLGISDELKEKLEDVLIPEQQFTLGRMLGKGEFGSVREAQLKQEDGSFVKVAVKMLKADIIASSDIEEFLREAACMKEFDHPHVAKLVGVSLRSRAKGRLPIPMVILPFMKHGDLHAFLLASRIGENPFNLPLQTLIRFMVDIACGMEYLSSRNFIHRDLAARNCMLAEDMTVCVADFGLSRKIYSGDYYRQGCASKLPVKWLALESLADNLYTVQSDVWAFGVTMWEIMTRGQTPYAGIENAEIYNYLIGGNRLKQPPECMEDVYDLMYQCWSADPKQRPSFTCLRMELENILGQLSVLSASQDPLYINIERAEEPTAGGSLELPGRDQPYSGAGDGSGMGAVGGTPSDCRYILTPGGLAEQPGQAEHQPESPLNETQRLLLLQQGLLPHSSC
Chain of MARK1 (human) (Q9P0L2 whole entry, looked up): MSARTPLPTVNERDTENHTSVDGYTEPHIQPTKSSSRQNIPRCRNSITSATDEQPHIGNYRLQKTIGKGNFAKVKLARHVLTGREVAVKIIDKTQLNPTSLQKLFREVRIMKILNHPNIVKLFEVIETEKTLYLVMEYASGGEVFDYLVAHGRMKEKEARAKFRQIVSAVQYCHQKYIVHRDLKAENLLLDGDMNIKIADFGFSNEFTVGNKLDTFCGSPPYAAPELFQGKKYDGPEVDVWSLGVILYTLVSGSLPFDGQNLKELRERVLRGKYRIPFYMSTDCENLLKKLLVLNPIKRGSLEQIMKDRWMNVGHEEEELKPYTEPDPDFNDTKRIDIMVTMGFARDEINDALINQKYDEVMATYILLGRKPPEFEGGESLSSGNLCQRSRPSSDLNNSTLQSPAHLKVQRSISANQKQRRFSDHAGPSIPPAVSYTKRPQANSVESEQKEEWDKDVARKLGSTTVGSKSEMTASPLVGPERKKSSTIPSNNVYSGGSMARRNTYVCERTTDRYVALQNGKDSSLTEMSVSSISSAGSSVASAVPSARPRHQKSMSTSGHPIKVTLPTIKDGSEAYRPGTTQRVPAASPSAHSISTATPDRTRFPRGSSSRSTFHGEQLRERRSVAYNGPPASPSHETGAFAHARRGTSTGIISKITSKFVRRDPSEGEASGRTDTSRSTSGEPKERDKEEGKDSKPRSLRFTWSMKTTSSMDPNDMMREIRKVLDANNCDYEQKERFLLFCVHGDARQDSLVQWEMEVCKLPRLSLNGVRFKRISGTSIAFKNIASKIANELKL
Chain of STK25 (human) (O00506 whole entry, looked up): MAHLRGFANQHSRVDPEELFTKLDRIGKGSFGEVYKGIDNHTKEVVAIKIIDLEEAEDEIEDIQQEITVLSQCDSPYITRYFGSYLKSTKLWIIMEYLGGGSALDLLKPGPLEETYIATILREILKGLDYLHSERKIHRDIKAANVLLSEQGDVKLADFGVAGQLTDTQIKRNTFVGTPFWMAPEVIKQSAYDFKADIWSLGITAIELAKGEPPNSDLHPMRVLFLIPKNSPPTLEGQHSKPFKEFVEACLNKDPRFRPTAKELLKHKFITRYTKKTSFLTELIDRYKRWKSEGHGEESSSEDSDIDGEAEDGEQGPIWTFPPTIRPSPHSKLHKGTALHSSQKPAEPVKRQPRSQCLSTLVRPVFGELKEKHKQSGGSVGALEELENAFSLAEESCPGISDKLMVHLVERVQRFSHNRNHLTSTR
Chain of CAMK1G (human) (Q96NX5 whole entry, looked up): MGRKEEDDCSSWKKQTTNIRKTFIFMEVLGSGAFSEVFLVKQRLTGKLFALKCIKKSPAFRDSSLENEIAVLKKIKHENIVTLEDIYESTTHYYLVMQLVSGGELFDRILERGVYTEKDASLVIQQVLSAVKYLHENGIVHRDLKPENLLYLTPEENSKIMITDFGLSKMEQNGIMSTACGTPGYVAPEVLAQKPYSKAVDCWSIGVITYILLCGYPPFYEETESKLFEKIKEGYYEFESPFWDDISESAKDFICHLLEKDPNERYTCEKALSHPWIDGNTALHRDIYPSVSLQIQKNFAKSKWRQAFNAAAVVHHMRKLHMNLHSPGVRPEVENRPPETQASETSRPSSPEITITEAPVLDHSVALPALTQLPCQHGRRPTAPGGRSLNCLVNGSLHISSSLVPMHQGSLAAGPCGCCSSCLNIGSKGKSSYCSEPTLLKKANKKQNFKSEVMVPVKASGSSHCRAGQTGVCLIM
Chain of NEK7 (human) (Q8TDX7 whole entry, looked up): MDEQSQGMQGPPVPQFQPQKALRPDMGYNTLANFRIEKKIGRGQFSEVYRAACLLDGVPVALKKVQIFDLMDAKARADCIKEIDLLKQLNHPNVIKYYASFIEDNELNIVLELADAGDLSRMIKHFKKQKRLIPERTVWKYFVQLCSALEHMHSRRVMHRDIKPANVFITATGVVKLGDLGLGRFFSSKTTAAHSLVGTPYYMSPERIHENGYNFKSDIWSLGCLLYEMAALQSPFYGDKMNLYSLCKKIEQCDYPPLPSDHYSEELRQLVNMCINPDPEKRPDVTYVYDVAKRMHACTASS

Compound | kinase still bound, per cent of control (STK25 (human)) | kinase still bound, per cent of control (CAMK1G (human)) | kinase still bound, per cent of control (INSRR (human)) | kinase still bound, per cent of control (TYRO3 (human)) | kinase still bound, per cent of control (NEK7 (human)) | kinase still bound, per cent of control (MARK1 (human)) | kinase still bound, per cent of control (CLK4 (human)) | kinase still bound, per cent of control (NEK2 (human)) | kinase still bound, per cent of control (TLK2 (human)) | kinase still bound, per cent of control (MAPK1 (human)) | kinase still bound, per cent of control (CSK (human)) | kinase still bound, per cent of control (PAK3 (human)) | kinase still bound, per cent of control (FGFR4 (human)) | kinase still bound, per cent of control (RIPK2 (human)) | kinase still bound, per cent of control (NEK9 (human)) | kinase still bound, per cent of control (PLK1 (human)) | kinase still bound, per cent of control (IGF1R (human)) | kinase still bound, per cent of control (CLK3 (human)) | kinase still bound, per cent of control (EPHB4 (human)) | kinase still bound, per cent of control (MAPK11 (human)) | also measured
CCS(=O)(=O)Nc1ccc2c(c1)[C@H](/C(=N/c1ccc(CN3CCCCC3)cc1)c1ccccc1)C(=O)N2 | 0.4% | no effect (inactive) | 0% | 0.2% | no effect (inactive) | 0% | 0% | 0% | 1.5% | 14% | 0% | 0% | 0% | 6.9% | no effect (inactive) | 1.55% | 0% | 2.3% | 0.7% | no effect (inactive) | kinase still bound, per cent of control (PRKCA (human)): 2.5%; kinase still bound, per cent of control (EGFR (human)): 21.2%; kinase still bound, per cent of control (LIMK2 (human)): no effect (inactive); kinase still bound, per cent of control (PRKACB (human)): 7%; kinase still bound, per cent of control (PTK6 (human)): 1.8%; kinase still bound, per cent of control (RPS6KA5 KD1 (human)): 0%; kinase still bound, per cent of control (PLK3 (human)): no effect (inactive); kinase still bound, per cent of control (RPS6KA6 KD1 (human)): 0%; kinase still bound, per cent of control (MUSK (human)): 0%; kinase still bound, per cent of control (PRKG2 (human)): 0%; kinase still bound, per cent of control (MAP3K5 (human)): 1.4%; kinase still bound, per cent of control (RPS6KA4 KD1 (human)): 0%; kinase still bound, per cent of control (EPHB3 (human)): 7.2%; kinase still bound, per cent of control (EPHB2 (human)): 0.15%; kinase still bound, per cent of control (PRKX (human)): 24.8%; kinase still bound, per cent of control (AKT3 (human)): no effect (inactive); kinase still bound, per cent of control (RPS6KA1 KD1 (human)): 0%; kinase still bound, per cent of control (PTK2B (human)): 0%; kinase still bound, per cent of control (MAPK9 (human)): 0.1%; kinase still bound, per cent of control (TXK (human)): 0%
Cc1ccc(NC(=O)c2cccc(N3CCCCC3)c2)cc1-c1ccc(C(=O)NCC2CC2)cc1 | no effect (inactive) | no effect (inactive) | no effect (inactive) | no effect (inactive) | no effect (inactive) | no effect (inactive) | no effect (inactive) | no effect (inactive) | no effect (inactive) | no effect (inactive) | no effect (inactive) | no effect (inactive) | no effect (inactive) | no effect (inactive) | no effect (inactive) | no effect (inactive) | no effect (inactive) | no effect (inactive) | no effect (inactive) | 0% | kinase still bound, per cent of control (PRKCA (human)): no effect (inactive); kinase still bound, per cent of control (EGFR (human)): no effect (inactive); kinase still bound, per cent of control (LIMK2 (human)): no effect (inactive); kinase still bound, per cent of control (PRKACB (human)): no effect (inactive); kinase still bound, per cent of control (PTK6 (human)): no effect (inactive); kinase still bound, per cent of control (RPS6KA5 KD1 (human)): no effect (inactive); kinase still bound, per cent of control (PLK3 (human)): no effect (inactive); kinase still bound, per cent of control (RPS6KA6 KD1 (human)): no effect (inactive); kinase still bound, per cent of control (MUSK (human)): no effect (inactive); kinase still bound, per cent of control (PRKG2 (human)): no effect (inactive); kinase still bound, per cent of control (MAP3K5 (human)): no effect (inactive); kinase still bound, per cent of control (RPS6KA4 KD1 (human)): no effect (inactive); kinase still bound, per cent of control (EPHB3 (human)): no effect (inactive); kinase still bound, per cent of control (EPHB2 (human)): no effect (inactive); kinase still bound, per cent of control (PRKX (human)): no effect (inactive); kinase still bound, per cent of control (AKT3 (human)): no effect (inactive); kinase still bound, per cent of control (RPS6KA1 KD1 (human)): no effect (inactive); kinase still bound, per cent of control (PTK2B (human)): no effect (inactive); kinase still bound, per cent of control (MAPK9 (human)): no effect (inactive); kinase still bound, per cent of control (TXK (human)): no effect (inactive)
NC(=O)c1ccc(-c2cc(C(N)=O)c(N)c(-c3ccc(S(N)(=O)=O)cc3)c2)cc1 | no effect (inactive) | no effect (inactive) | no effect (inactive) | no effect (inactive) | no effect (inactive) | no effect (inactive) | no effect (inactive) | no effect (inactive) | no effect (inactive) | no effect (inactive) | no effect (inactive) | no effect (inactive) | no effect (inactive) | no effect (inactive) | no effect (inactive) | no effect (inactive) | no effect (inactive) | no effect (inactive) | no effect (inactive) | no effect (inactive) | kinase still bound, per cent of control (EGFR (human)): no effect (inactive); kinase still bound, per cent of control (LIMK2 (human)): no effect (inactive); kinase still bound, per cent of control (PTK6 (human)): no effect (inactive); kinase still bound, per cent of control (RPS6KA5 KD1 (human)): no effect (inactive); kinase still bound, per cent of control (PLK3 (human)): no effect (inactive); kinase still bound, per cent of control (RPS6KA6 KD1 (human)): no effect (inactive); kinase still bound, per cent of control (MUSK (human)): no effect (inactive); kinase still bound, per cent of control (PRKG2 (human)): no effect (inactive); kinase still bound, per cent of control (MAP3K5 (human)): no effect (inactive); kinase still bound, per cent of control (RPS6KA4 KD1 (human)): no effect (inactive); kinase still bound, per cent of control (EPHB3 (human)): no effect (inactive); kinase still bound, per cent of control (EPHB2 (human)): no effect (inactive); kinase still bound, per cent of control (AKT3 (human)): no effect (inactive); kinase still bound, per cent of control (RPS6KA1 KD1 (human)): no effect (inactive); kinase still bound, per cent of control (PTK2B (human)): no effect (inactive); kinase still bound, per cent of control (MAPK9 (human)): no effect (inactive); kinase still bound, per cent of control (TXK (human)): no effect (inactive)
